Measurements: patent US20130143969A1 (THE OHIO STATE UNIVERSITY, priority 2010, published 2013)

Tests used:
DNMT3b = assay: Quantitative RT-PCR of DNMT3b mRNA in MV4-11 cells; format: cell-based; settings: 10 μM
Procedure: (§1) Cell Cycle and Apoptosis Analysis: MV4-11, ML-1, HL-60 and K562 leukemia cell lines were cultured in RPMI medium (VWR International, Inc., West Chester, Pa.) supplemented with 10% fetal bovine serum (Invitrogen, Carlsbad, Calif.) and 1% (v/v) penicillin/streptomycin (Invitrogen Life Technologies; Carlsbad, Calif.) antibiotic solution at 37° C. in an incubator under 5% CO2 atmosphere. For the ex-vivo studies, mononuclear cells obtained from bone marrow (BM) of patient with AML were prepared by Ficoll-Hypaque (Nygaard) gradient centrifugation and cultured with serum-free expansion medium (SFEM) (StemCell technologies, Vancouver, BC) supplemented with GM-CSF (50 ng/ml), IL-3 (20 ng/ml), IL-6 (20 ng/ml) and SCF ([…]). […] The cell cycle and apoptosis of MV4-11 cells was analyzed on a BD FACS Calibur (Beckman Coulter, Fullerton, Calif.) according to the standard protocol provided by the manufacturer.
(§2) Quantitative RT-PCR was used to quantify the mRNA levels of DNMT1, DNMT3a, DNMT3b, p15INK4B and p21. […] Quantitative real-time PCR reactions were performed in triplicate using Taqman gene expression assay (Applied Biosystems) with an ABI prism 7700 detector (Applied Biosystems). The target gene values were normalized to the values of internal control GAPDH or 18 S, and expressed as relative percent change (100×2^(˜ΔΔCt)) over non-treated samples.

[1] = Solubility of curcumin in different PEGs and temperatures; format: physicochemical
Procedure: The pharmaceutical compositions may be prepared by dissolving solid curcumin in an excipient. […] In one embodiment, the mixture is stirred at an elevated temperature until a homogenous solution is obtained. For example, the mixture may be heated to a temperature within the range from about 30° C. to about 150° C.; from about 50° C. to about 120° C.; from about 60° C. to about 100° C. […]

DNMT1 = assay: Quantitative RT-PCR of DNMT1 transcripts in MV4-11 cells; format: cell-based; set-up: dose or concentration left out as unconfirmed; settings: curcumin
Procedure: as §1, §2

[2] = system: p15^INK4B promoter region; assay: DNA methylation analysis of the p15INK4B promoter region (LC-MS/MS); format: cell-based; settings: MV4-11 cells, 10 μM curcumin, 72 hours
Procedure: Genomic DNA isolated from MV4-11 cells was treated with bisulfite using the Epi methylation Kit (Qiagen, Minneapolis, Minn.) according to the instruction from the manufacturer and followed by PCR amplification as follows. The sequences of p15^INK4B primers were: forward 5′-GGGAGGGTAATGAAGTTGAGTTTA-3′ (SEQ ID NO. 1), and reverse 5′-ACCCTAAAACCCCAACTACCTAAAT-3′ (SEQ ID NO. 2). PCR amplifications were performed as follows: 95° C. for 5.5 min, 55° C. for 30s for 5 cycles, and 52° C. for 30 s for 38 cycles, 72° C. for 30s for 38 cycles, with a final step at 72° C. for 1 min. PCRs were carried out in a 100 μl volume containing 10 μl of buffer (10×), 2 μL of each primer (10 μM), 2 μL of (10 mM) dNTPs, 2 U of Platinum Taq DNA polymerase (Invitrogen, Carlsbad, Calif.), 70.6 μL ddH2O and 10 μL of bisulfite treated DNA in a GeneAmp 9700 thermal cycler (Perkin-Elmer, Norwalk, Conn.). PCR products were purified using QIAquick columns and eluted in water. A 500 ng aliquot of the PCR product was incubated with 25 UM. […] Fully methylated PCR products were purified using the QIAquick PCR Purification kit (Qiagen, Minneapolis, Minn.), according to the manufacturer's instructions and 200 ng of the purified DNA was hydrolyzed and the concentrations of 5mdC and 2dC in the hydrolysate were measured by LC-MS/MS using the conditions as described previously.

[3] = system: MV4-11 leukemia cell-engrafted animal model; assay: Xenograft animal model, anti-tumor growth activity; format: in vivo, athymic nu/nu mice
Procedure: Female athymic nu/nu mice (4-6 weeks old, 18-22 g) were obtained from Charles River Laboratory (Wilmington, Mass.) and acclimated for 1 week in a pathogen-free enclosure before start of study. Animals were given sterile rodent chow and water ad libitum and were housed in sterile filter-top cages with 12 hour light/dark cycles. All experiments were conducted in accordance with the guidelines of the Association for Assessment and Accreditation of Laboratory Animal Care International. MV4-11 cells (5×10^6 cells per mouse) were suspended with 50% Matrigel (Becton Dickinson) and subcutaneously implanted into both right and left flanks of the athymic nu/nu mice. When tumors were grown between 100 to 200 mm^3, treatments were initiated. Mice were randomly assigned into two cohorts for the anti-tumor growth activity studies, with 6 mice per group. […] Tumor volume was calculated by using the equation V=2×A×B^2/3, where A is the longer (horizontal as width) diameter (mm) and B is the shorter (perpendicular as depth) diameter (mm) and expressed in cubic millimeter. After 4 weeks, mice were euthanized and tumor tissues were excised, snapfrozen in liquid nitrogen, weighed and stored in a −80° C. freezer until analysis.

in vivo = settings: CD2F1, mouse, in vivo
Description: Extracts of bio-matrices were subjected to HPLC mass spectrometric analysis.

[4] = Stability of curcumin in reconstituted solution in auto-sampler at 4° C; format: physicochemical; settings: auto-sampler 4° C, up to 8 hours
Description: Therefore, all mouse blood and plasma samples have to be processed on ice to avoid potential degradation for its pharmacokinetic studies.

[5] = day 29 after the treatment, i.p. 100 mg/kg

In the case of COc1cc(/C=C/C(=O)CC(=O)/C=C/c2ccc(O)c(OC)c2)ccc1O [curcumin], the “DNMT3b mRNA level, % of the control” value (DNMT3b; 48 h) is reported as 40%, the “DNMT3b mRNA level, % of the control” value (DNMT3b; 72 h) is reported as 10% and the “amount of curcumin that can dissolve” value ([1]; in 1 mL PEG 400 at 100° C) is reported as “about 200 mg”. The “Final Conc. 100° C.” value ([1]; solubility in PEG 200, 100° C) was 193.1 mg/mL, the “Final Conc. 100° C.” value ([1]; solubility in PEG 300, 100° C) was 252.3 mg/mL and the “Final Conc. 60° C.” value ([1]; solubility in PEG 400, 60° C) was 131.4 mg/mL. For the same compound, the “Final Conc. 100° C.” value ([1]; solubility in PEG 400, 100° C) was 195 mg/mL, the “Final Conc. @ RT” value ([1]; solubility in PEG 400, RT) was 42.7 mg/mL and the “Final Conc. 100° C.” value ([1]; solubility in PEG 500, 100° C) was 218.9 mg/mL. The “Final Conc. 60° C.” value ([1]; solubility in PEG 600, 60° C) was 136.0 mg/mL, the “Final Conc. 100° C.” value ([1]; solubility in PEG 600, 100° C) was 241.8 mg/mL and the “Final Conc. @ RT” value ([1]; solubility in PEG 600, RT) was 42.0 mg/mL. The “decrease in the level of DNMT1 transcripts compared to untreated control” value (DNMT1; 48 hours) was 70%, the “decrease in the level of DNMT1 transcripts compared to untreated control” value (DNMT1; 72 hours) was 90% and the “decrease of p15INK4B promoter methylation level” value [2] was “about 40%”. The tumor size decrease ([3]; MV4-11 engrafted nude mice (summary)) was “about 65%”, the “reduction of tumor size” value [3, 5] was 3854 mm^3 and the “reduction of tumor weight” value [3, 5] was 65%. For the same compound, the body weight ([3]; i.p. 100 mg/kg five days a week, 4 weeks) was “No significant weight loss”, the “decrease of tumor growth rate compared with control” value ([3]; i.p. 100 mg/kg, linear mixed effect model) was 142.5 mm^3 per day and the “life span of MV4-11 engrafted nude mice” value ([3]; pilot study) was 6 weeks. For the same compound, the average tumor weight ([3]; treatment group) was 3.6 g, the concentration at 10 min (in vivo) was 1620 ng/mL and the concentration at 20 min (in vivo) was 1620 ng/mL. It also gave a concentration at 30 min (in vivo) of 2450 ng/mL, a concentration at 45 min (in vivo) of 661 ng/mL and a concentration at 60 min (in vivo) of 448 ng/mL. For the same compound, the concentration at 90 min (in vivo) was 135 ng/mL, the concentration at 120 min (in vivo) was 231 ng/mL and the concentration at 240 min (in vivo) was 169 ng/mL. For the same compound, the concentration at 480 min (in vivo) was 58.3 ng/mL and the “% of original concentrations remaining” value [4] was greater than 85%.
